Measured values taken from patent US6492339B1, “Compositions comprising D-chiro inositol and sulfonylureas and methods of treatment thereof” (Insmed, Incorporated, priority 2001, dated 2002).
Entries after “also recorded” stand apart in the source; their conditions may differ.

How the values were obtained:
[1] = test system: obese patients with type 2 diabetes mellitus; assay: Randomized, placebo-controlled, double-blind clinical trial of D-chiro-inositol in combination with a sulfonylurea (fasting biomarkers, HbA1c, lipids); assay type: in vivo, human; details: for difference to placebo in change of mean HbA1c level (%): baseline to endpoint
Experimental: The objective of this study was to assess the efficacy and safety of D-chiro-inositol when administered as a single oral dose of 1200 mg/day compared to placebo, each in combination with sulfonylureas, for 3 months. Patients were required to have been on sulfonylureas for 3 months prior to study entry without reaching their target dose or with a suboptimal response.
This multicenter, double-blind, parallel-group, placebo-controlled, randomized, fixed-dose clinical study was designed to evaluate 1200 mg/day D-chiro-inositol versus placebo in 270 obese patients with type 2 diabetes mellitus who had been receiving sulfonylureas for at least 3 months without reaching their target or with suboptimal response.
(§1) The study involved 5 scheduled visits. The first visit was the screening visit, followed by a baseline visit up to 2 weeks later. Patients were randomized at the baseline visit, half to 1200 mg/day D-chiro-inositol and half to placebo. and subsequently began 13 weeks of treatment with blinded study medication. There were 3 visits for safety and efficacy assessments, at 4, 8, and 13 weeks after beginning treatment. The 13week visit was the final visit. Patients arrived at the investigational site in a fasted state for all visits. Assessments were to be done at the same time of day at each visit by the same responsible personnel. Medication was taken once a day at the same time of morning, except on visit days, on which the dose was delayed until just after fasting blood samples had been collected.
Patients receiving D-chiro-inositol received four 300 mg capsules once daily for a total daily dose of 1200 mg; placebo patients took 4 placebo capsules once daily. Doses were taken orally, generally in the mornings. Patients were instructed to take their dose in the morning at the same time each day, except on visit days. On visit days, dosing was to be done at the clinic. No instructions were given regarding when to take medication in relation to meals on non-visit days.
(§2) Biomarkers: A meal tolerance test (MTT) was performed at baseline (Visit 2) and the final visit (Visit 5). In addition, blood was drawn at every visit for assessment of fasting glucose and insulin, HbA1c, C-peptide, fructosamine, FFA, triglycerides, total cholesterol, HDL, VLDL, LDL, and Apo-B levels.
Primary Efficacy Variable(s) and Analyses. The primary analysis was based on the change from baseline to endpoint in HbA1c level using the modified ITT and evaluable study populations. The analysis was done using an analysis of covariance (ANCOVA) model with treatment group and the baseline HbA1c value as predictors.
Secondary Efficacy Variable(s) and Analyses. Since all secondary efficacy parameters were continuous, they were analyzed in the same manner as described above for the primary efficacy parameter, with treatment group and baseline values for the relevant parameter used as predictors.

[2] = test system: obese patients with type 2 diabetes mellitus; assay: Meal tolerance test (MTT) at baseline and final visit of the clinical trial; assay type: in vivo, human
Experimental: Changes in area-under-the-curve (AUC) and 120-minute insulin and glucose levels during the meal tolerance test (MTT).
as §1, §2
AUC (and 120-minute) insulin and glucose levels during the MTT;.
FIGS. 1A, 1B and 2 illustrate the observation that D-chiro-inositol (DCI) prolongs pancreatic production of insulin in patients receiving sulfonylurea compounds. […] At baseline, a time when the subjects had been poorly managed on SU compounds alone, both the DCI group and the SU group responded similarly in their ability to produce insulin in response to the meal challenge. […] Without wishing to be bound by theory, the inventors contemplate that this progression is mediated by pancreatic failure and thus reduced insulin secretion. Therefore the amelioration of this effect by administration of DCI benefits the subject by the aforementioned medical improvements, but also will prevent the progression of diabetes by preventing pancreatic failure and/or decreased insulin production.

type 2 diabetic patients = assay: Subgroup analysis of lipid lowering drug/D-chiro-inositol effects on LDL cholesterol; assay type: in vivo, human; details: type 2 diabetic patients on sulfonylurea, with or without lipid lowering medications
Experimental: Due to the observation of lipid lowering effects seen in the DCI group, the clinical trial described in EXAMPLE 1 was further analyzed for synergistic interactions between D-chiro-inositol and lipid lowering medications. Certain patients within the trial were treated according to standard of care with HMC-CoA inhibitors (LIPITOR®, LESCOL®, ZOCOR®, MEVACOR®, PRAVACHOL®), gemfibrozil, or a combination of HMC-CoA and gemfibrozil. No inclusion or exclusion criteria were established for the efficacy of the lipid lowering drug efficacy in the patient population. As stated supra, these patients were being sub optimally treated with a sulfonylurea prior to beginning the clinical trial.

[3] = test system: streptozotocin-treated rats, obese Zucker rats, or normal rats given a glucose load; details: obese Zucker or glucose-loaded normal rats; cited from earlier work
[4] = test system: obese insulin-resistant rhesus monkeys; details: oral or intravenous route; cited from earlier work
diabetic population = details: in combination with sulfonylurea or insulin; cited from earlier work
[5] = evaluable patients with fasting plasma glucose ≦180 mg/dL, 1200 mg/day oral with sulfonylureas
[6] = evaluable population, 1200 mg/day oral with sulfonylureas, 13 weeks
[7] = patients with fasting plasma glucose ≦180 mg/dL, 1200 mg/day oral with sulfonylureas

Structure (SMILES): OC1C(O)C(O)C(O)C(O)C1O [D-chiro-inositol]
- Mean change (in %) in HbA1c levels from baseline to endpoint ([1]; all subjects using LOCF at endpoint, 1200 mg/day oral with sulfonylureas, 13 weeks): −0.16%
- decrease in mean HbA1c level (%) from baseline to endpoint ([1]; evaluable patients with FPG≦180 mg/dL, value printed as size of the decrease): 0.53%
- Apo-B, mean change [1, 5]: -4.00 mg/dL
- difference to placebo in change of mean HbA1c level (%) ([1]; evaluable population): 0.36%
- FFA, mean change at endpoint [1, 6]: −0.07 mEq/L
- decrease in mean HbA1c levels (%) from baseline to endpoint ([1]; evaluable population, value printed as size of the decrease): 0.16%
- difference to placebo in change of mean HbA1c level (%) ([1]; patients with FPG≦180 mg/dL): 0.80%
- Mean change (in %) in HbA1c levels to endpoint ([1]; patients with fasting plasma glucose ≦180 mg/dL, LOCF at endpoint, 1200 mg/day oral with sulfonylureas): −0.53%
- Mean change (in %) in HbA1c levels to Week 4 [1, 7]: −0.47%
- Mean change (in %) in HbA1c levels to Week 8 [1, 7]: −0.57%
- Change in insulin AUC from baseline to final (FIG. 2) ([2]; DCI+SU, scatter diagram of individual subjects, median, listed as DCI): no significant negative scatter; also recorded: slightly increased the insulin AUC
- insulin response after a meal tolerance test, baseline versus final (FIGS. 1A, 1B) ([2]; DCI+SU, subjects with fasting blood glucose ≤180 mg/dl, three month timepoint, listed as DCI): maintained this response after the 13 week course of treatment; also recorded: maintains a constant insulin response over the testing period
- AUC insulin, mean change [2, 5]: 1070.8 μU/mL · hr
- 120-min. insulin, mean change at endpoint [2, 6]: 3.50 μU/mL
- AUC insulin, mean change at endpoint [2, 6]: 484.4 μU/mL · hr
- effect on LDL cholesterol (FIG. 3) (type 2 diabetic patients): significantly reduced the increase of LDL cholesterol
- glycemic control [3]: significantly improved glycemic control
- disappearance rate of plasma glucose and insulin [4]: significantly increased the disappearance rate of both plasma glucose and insulin

Structure (SMILES): CCc1ccc(CCOc2ccc(CC3SC(=O)NC3=O)cc2)nc1 (stereo not shown) [pioglitazone]
- rate of mild to moderate hypoglycemia (diabetic population): 1-2%
